# Assays:
# [1] = system: Mycobacterium tuberculosis; experiment: Antituberculosis activity against Mycobacterium tuberculosis H37Rv at 6.25 ug/ml by BACTEC MGIT method; format: functional
# [2] = system: Mycobacterium tuberculosis; experiment: Antituberculosis activity against Mycobacterium tuberculosis H37Rv by BACTEC MGIT method; format: functional
# Pseudomonas aeruginosa [3] = experiment: Antibacterial activity against Pseudomonas aeruginosa MTCC 741 by agar streak dilution method; format: functional
# [4] = system: Mycobacterium tuberculosis; experiment: Antituberculosis activity against Mycobacterium tuberculosis H37Rv at 6.25 ug/ml by Lowenstein-Jensen method; format: functional
# Aspergillus niger [5] = experiment: Antifungal activity against Aspergillus niger MTCC 282 by agar streak dilution method; format: functional
# Candida albicans [6] = experiment: Antifungal activity against Candida albicans MTCC 183 at 100 ug/disc by paper disc diffusion technique; format: functional; details: read-out: IZ
# Klebsiella pneumoniae [7] = experiment: Antibacterial activity against Klebsiella pneumoniae MTCC 109 at 100 ug/disc by paper disc diffusion technique; format: functional; details: read-out: IZ
# Aspergillus niger [8] = experiment: Antifungal activity against Aspergillus niger MTCC 282 at 100 ug/disc by paper disc diffusion technique; format: functional; details: read-out: IZ
# Salmonella typhi [9] = experiment: Antibacterial activity against Salmonella typhi MTCC 733 by agar streak dilution method; format: functional, Salmonella enterica subsp. enterica serovar Typhi; details: Salmonella enterica
# Proteus vulgaris [10] = experiment: Antibacterial activity against Proteus vulgaris MTCC 1771 at 100 ug/disc by paper disc diffusion technique; format: functional; details: read-out: IZ
# Aspergillus clavatus [11] = experiment: Antifungal activity against Aspergillus clavatus MTCC 1323 by agar streak dilution method; format: functional
# Shigella flexneri [12] = experiment: Antibacterial activity against Shigella flexneri MTCC 1457 by agar streak dilution method; format: functional
# Proteus vulgaris [13] = experiment: Antibacterial activity against Proteus vulgaris MTCC 1771 by agar streak dilution method; format: functional
# Bacillus cereus [14] = experiment: Antibacterial activity against Bacillus cereus MTCC 430 by agar streak dilution method; format: functional
# [15] = Lipophilicity, log P of the compound; format: physicochemical; details: octanol/water
# Bacillus cereus [16] = experiment: Antibacterial activity against Bacillus cereus MTCC 430 at 100 ug/disc by paper disc diffusion technique; format: functional; details: read-out: IZ
# Aspergillus fumigatus [17] = experiment: Antifungal activity against Aspergillus fumigatus MTCC 343 at 100 ug/disc by paper disc diffusion technique; format: functional; details: read-out: IZ
# Pseudomonas aeruginosa [18] = experiment: Antibacterial activity against Pseudomonas aeruginosa MTCC 741 at 100 ug/disc by paper disc diffusion technique; format: functional; details: read-out: IZ
# Staphylococcus aureus [19] = experiment: Antibacterial activity against Staphylococcus aureus MTCC 96 by agar streak dilution method; format: functional
# Klebsiella pneumoniae [20] = experiment: Antibacterial activity against Klebsiella pneumoniae MTCC 109 by agar streak dilution method; format: functional
# Escherichia coli [21] = experiment: Antibacterial activity against Escherichia coli MTCC 739 at 100 ug/disc by paper disc diffusion technique; format: functional; details: read-out: IZ
# Escherichia coli [22] = experiment: Antibacterial activity against Escherichia coli MTCC 739 by agar streak dilution method; format: functional
# Shigella flexneri [23] = experiment: Antibacterial activity against Shigella flexneri MTCC 1457 at 100 ug/disc by paper disc diffusion technique; format: functional; details: read-out: IZ
# Salmonella typhi [24] = experiment: Antibacterial activity against Salmonella typhi MTCC 733 at 100 ug/disc by paper disc diffusion technique; format: functional, Salmonella enterica subsp. enterica serovar Typhi; details: Salmonella enterica, read-out: IZ
# Candida albicans [25] = experiment: Antifungal activity against Candida albicans MTCC 183 by agar streak dilution method; format: functional
# Aspergillus fumigatus [26] = experiment: Antifungal activity against Aspergillus fumigatus MTCC 343 by agar streak dilution method; format: functional
# [27] = system: Mycobacterium tuberculosis; experiment: Antituberculosis activity against Mycobacterium tuberculosis H37Rv by Lowenstein-Jensen method; format: functional
# Aspergillus clavatus [28] = experiment: Antifungal activity against Aspergillus clavatus MTCC 1323 at 100 ug/disc by paper disc diffusion technique; format: functional; details: read-out: IZ
# Staphylococcus aureus [29] = experiment: Antibacterial activity against Staphylococcus aureus MTCC 96 at 100 ug/disc by paper disc diffusion technique; format: functional; details: read-out: IZ
Compound,MIC [2] [µg/mL],MIC (Pseudomonas aeruginosa [3]) [µg/mL],inhibition at 6.25 µg/mL [4] [%],MIC (Aspergillus niger [5]) [µg/mL],zone of inhibition at 100 µg/disc (Candida albicans [6]) [mm],zone of inhibition at 100 µg/disc (Klebsiella pneumoniae [7]) [mm],zone of inhibition at 100 µg/disc (Aspergillus niger [8]) [mm],MIC (Salmonella typhi [9]) [µg/mL],zone of inhibition at 100 µg/disc (Proteus vulgaris [10]) [mm],MIC (Aspergillus clavatus [11]) [µg/mL],MIC (Shigella flexneri [12]) [µg/mL],MIC (Proteus vulgaris [13]) [µg/mL],MIC (Bacillus cereus [14]) [µg/mL],logP [15],zone of inhibition at 100 µg/disc (Bacillus cereus [16]) [mm],zone of inhibition at 100 µg/disc (Aspergillus fumigatus [17]) [mm],zone of inhibition at 100 µg/disc (Pseudomonas aeruginosa [18]) [mm],MIC (Staphylococcus aureus [19]) [µg/mL],MIC (Klebsiella pneumoniae [20]) [µg/mL],zone of inhibition at 100 µg/disc (Escherichia coli [21]) [mm],further results
NC(=O)c1cnccn1 [PYRAZINAMIDE],6.25,–,–,–,–,–,–,–,–,–,–,–,–,–,–,–,–,–,–,–,inhibition at 6.25 µg/mL [1]: 99%
CC[C@@H](CO)NCCN[C@@H](CC)CO [ETHAMBUTOL],3.12,–,–,–,–,–,–,–,–,–,–,–,–,–,–,–,–,–,–,–,inhibition at 6.25 µg/mL [1]: 99%
COc1ccc(NC(=O)CSc2nnc(Cn3cnc4ccccc43)o2)cc1,6.25,50,99,100,22,11,16,50,21,100,50,25,50,2.37,18,10,21,100,100,20,inhibition at 6.25 µg/mL [1]: 99%; MIC (Escherichia coli [22]): 50 µg/mL; zone of inhibition at 100 µg/disc (Shigella flexneri [23]): 19 mm; zone of inhibition at 100 µg/disc (Salmonella typhi [24]): 20 mm; MIC (Candida albicans [25]): 50 µg/mL; MIC (Aspergillus fumigatus [26]): 100 µg/mL; MIC [27]: 6.25 µg/mL; zone of inhibition at 100 µg/disc (Aspergillus clavatus [28]): < 10 mm; zone of inhibition at 100 µg/disc (Staphylococcus aureus [29]): 13 mm
Cc1ccc(NC(=O)CSc2nnc(Cn3cnc4ccccc43)o2)cc1,> 6.25,100,95,100,14,< 10,< 10,100,14,100,100,100,100,2.98,13,< 10,14,100,100,14,MIC (Escherichia coli [22]): 100 µg/mL; zone of inhibition at 100 µg/disc (Shigella flexneri [23]): < 10 mm; zone of inhibition at 100 µg/disc (Salmonella typhi [24]): 17 mm; MIC (Candida albicans [25]): 100 µg/mL; MIC (Aspergillus fumigatus [26]): 100 µg/mL; MIC [27]: 100 µg/mL; zone of inhibition at 100 µg/disc (Aspergillus clavatus [28]): 12 mm; zone of inhibition at 100 µg/disc (Staphylococcus aureus [29]): 11 mm
O=C(CSc1nnc(Cn2cnc3ccccc32)o1)Nc1nc2ccc(F)cc2s1,> 6.25,50,99,25,23,19,21,25,22,50,6.25,25,6.25,3.85,29,23,20,3.12,50,17,MIC (Escherichia coli [22]): 50 µg/mL; zone of inhibition at 100 µg/disc (Shigella flexneri [23]): 24 mm; zone of inhibition at 100 µg/disc (Salmonella typhi [24]): 24 mm; MIC (Candida albicans [25]): 50 µg/mL; MIC (Aspergillus fumigatus [26]): 25 µg/mL; MIC [27]: 12.5 µg/mL; zone of inhibition at 100 µg/disc (Aspergillus clavatus [28]): 21 mm; zone of inhibition at 100 µg/disc (Staphylococcus aureus [29]): 25 mm
COc1ccc2nc(NC(=O)CSc3nnc(Cn4cnc5ccccc54)o3)sc2c1,> 6.25,100,99,50,25,21,17,50,26,50,6.25,12.5,50,3.56,20,< 10,12,25,50,18,MIC (Escherichia coli [22]): 50 µg/mL; zone of inhibition at 100 µg/disc (Shigella flexneri [23]): 24 mm; zone of inhibition at 100 µg/disc (Salmonella typhi [24]): 20 mm; MIC (Candida albicans [25]): 25 µg/mL; MIC (Aspergillus fumigatus [26]): 100 µg/mL; MIC [27]: 12.5 µg/mL; zone of inhibition at 100 µg/disc (Aspergillus clavatus [28]): 22 mm; zone of inhibition at 100 µg/disc (Staphylococcus aureus [29]): 19 mm
O=C(CSc1nnc(Cn2cnc3ccccc32)o1)Nc1nc2ccc(I)cc2s1,> 6.25,100,96,100,19,14,14,100,26,100,25,12.5,25,5.05,23,< 10,14,12.5,100,15,MIC (Escherichia coli [22]): 50 µg/mL; zone of inhibition at 100 µg/disc (Shigella flexneri [23]): 22 mm; zone of inhibition at 100 µg/disc (Salmonella typhi [24]): 16 mm; MIC (Candida albicans [25]): 100 µg/mL; MIC (Aspergillus fumigatus [26]): 100 µg/mL; MIC [27]: 200 µg/mL; zone of inhibition at 100 µg/disc (Aspergillus clavatus [28]): 14 mm; zone of inhibition at 100 µg/disc (Staphylococcus aureus [29]): 22 mm
CO[C@H]1/C=C/O[C@@]2(C)Oc3c(C)c(O)c4c(O)c(c(/C=N/N5CCN(C)CC5)c(O)c4c3C2=O)NC(=O)/C(C)=C\C=C\[C@H](C)[C@H](O)[C@@H](C)[C@@H](O)[C@@H](C)[C@H](OC(C)=O)[C@@H]1C [RIFAMPIN],0.25,–,–,–,–,–,–,–,–,–,–,–,–,–,–,–,–,–,–,–,inhibition at 6.25 µg/mL [1]: 99%

# Source: ChEMBL document CHEMBL2034905, “Synthesis of benzimidazolyl-1,3,4-oxadiazol-2ylthio-N-phenyl (benzothiazolyl) acetamides as antibacterial, antifungal and antituberculosis agents” (Eur J Med Chem, 2012)
